In brackets after ≈: the same amount, converted by molar mass. Where a SMILES comes first, the peptide text is derived from it. [ ]: non-standard residue; d: D form. ξ: configuration not given here. ξLac(3-iPr) = CC(C)CC(O)C(=O)O; NMeV = CN[C@H](C(=O)O)C(C)C; βAla = NCCC(=O)O

The values that follow come from ChEMBL document CHEMBL3045917, “Insecticidal cyclodepsipeptides from Beauveria felina” (2011).

Test [1] has as its system Sitophilus. The test is described as follows: Insecticidal activity against Sitophilus spp. assessed as mortality after 5 days. The test is classed as functional. To be noted: 120 h, read-out: LD50 (the source's name).
In test [2] the test system is Callosobruchus maculatus. Put plainly: Insecticidal activity against Callosobruchus maculatus assessed as mortality after 5 days. The test is classed as functional. To be noted: 120 h, read-out: LD50 (the source's name).

Consider `CCCCC(C)C1CC(=O)NCC(=O)N[C@@H](C(C)C)C(=O)N[C@H](CC(C)C)C(=O)N[C@@H](C)C(=O)N[C@H](C(C)C)C(=O)O1` (stereo partly drawn) [ISO-ISARIIN B], for which the LC50 in test [1] came out at 10 µg/mL (≈ 16.8 µM).

For the compound `CC(C)CC1OC(=O)CCNC(=O)[C@H](C(C)C)N(C)C(=O)[C@H](C(C)C)N(C)C(=O)[C@H](Cc2ccccc2)NC(=O)[C@@H]2CCCN2C1=O` (stereo partly drawn) [ISARIDIN E] (cyclo(F[NMeV][NMeV][βAla][ξLac(3-iPr)]P)), the LC50 in test [1] was 300 µg/mL (≈ 457 µM); in test [2] it was 220 µg/mL (≈ 335 µM).
